Measurements published in patent US20230301948A1, “REDUCTION OF VIRAL INFECTIONS” (PHOXGEN LIMITED, priority 2020, published 2023).
Read-outs that look alike come from different tables or passages of the source. Marks after values point to notes of the source that are not given here.

Assays:
SpikeS1-ACE2 interaction = target: T1, SpikeS1-ACE2 interaction (UniProt P0DTC2+Q9BYF1); assay: biochemical; format: binding, SARS-CoV-2; conditions: read-out: Percentage inhibition (wrt 100% initial activity)
T1 construct: Rabbit Fc-tagged SARS-Cov-2 Spike S1 RBD; purchased Cayman Chemical Company

cathepsin L protease = target: T2, cathepsin L protease (Homo sapiens, UniProt P07711); format: biochemical
T2 construct: purchased BPS Bioscience
T2 sequence (P07711 114-333): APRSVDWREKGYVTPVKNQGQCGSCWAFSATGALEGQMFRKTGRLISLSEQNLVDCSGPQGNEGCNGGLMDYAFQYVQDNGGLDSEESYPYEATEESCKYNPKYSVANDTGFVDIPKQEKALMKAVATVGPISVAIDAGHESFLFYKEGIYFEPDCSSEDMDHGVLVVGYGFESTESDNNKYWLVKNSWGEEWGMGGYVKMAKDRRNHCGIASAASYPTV

Compound: Cc1cc(O)c2c(c1)C(=O)c1cc(O)cc(O)c1C2=O [Emodin]
- inhibition at 0.01 µg/mL (SpikeS1-ACE2 interaction; 0.01 µg/ml): 35.5%
- inhibition at 0.1 µg/mL (SpikeS1-ACE2 interaction; 0.1 µg/ml): 38.9%
- inhibition at 1 µg/mL (SpikeS1-ACE2 interaction; 1 µg/ml): 44.3%
- inhibition at 10 µg/mL (SpikeS1-ACE2 interaction; 10 µg/ml): 48.9%
- inhibition at 50 µg/mL (SpikeS1-ACE2 interaction; 50 µg/ml): 62.8%

Compound: CC(C)C[C@H](NC(=O)[C@H]1O[C@@H]1C(=O)O)C(=O)NCCCCN=C(N)N [Composition E-64, E-64]
- Percentage inhibition (cathepsin L protease; 0.0001 µM): -15.5%
- Percentage inhibition (cathepsin L protease; 0.001 µM): -1.1%
- Percentage inhibition (cathepsin L protease; 0.01 µM): 17.2 ** %
- Percentage inhibition (cathepsin L protease; 0.1 µM): 56.3 ** %
